These results are taken from publication doi:10.1101/2025.05.22.655130v1, “Design to Data for mutants of β-glucosidase B from Paenibacillus polymyxa: L336M, L336A, L336S, L336H, D35E, D35W” (biorxiv, 2025).

This assay concerns the target T1, β-glucosidase B (BglB) (Paenibacillus polymyxa, UniProt P22505).
T1 construct: previously cloned in pET29b+, expressed in E. coli, purified by nickel IMAC; band about 50 kD
Nature of the assay: Michaelis-Menten, 4-nitrophenol release at […] nm. Format: biochemical. Conditions: 0.11-100 mM substrate, readings every minute for 15 min; triplicate.

T1 sequence (P22505 whole entry): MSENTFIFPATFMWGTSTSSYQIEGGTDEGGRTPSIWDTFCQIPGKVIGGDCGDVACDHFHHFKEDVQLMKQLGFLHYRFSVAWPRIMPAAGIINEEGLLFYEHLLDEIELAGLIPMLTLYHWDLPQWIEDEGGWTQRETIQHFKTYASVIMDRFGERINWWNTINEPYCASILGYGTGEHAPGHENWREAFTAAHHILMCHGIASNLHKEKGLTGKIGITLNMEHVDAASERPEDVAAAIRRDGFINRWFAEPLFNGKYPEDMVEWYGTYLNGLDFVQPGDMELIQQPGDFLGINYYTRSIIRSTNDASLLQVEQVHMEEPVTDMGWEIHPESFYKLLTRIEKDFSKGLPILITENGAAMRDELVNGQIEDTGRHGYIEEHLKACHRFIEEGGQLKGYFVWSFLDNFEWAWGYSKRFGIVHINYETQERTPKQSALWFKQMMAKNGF

On to `O=[N+]([O-])c1ccc(O[C@@H]2O[C@H](CO)[C@@H](O)[C@H](O)[C@H]2O)cc1` [pNPG, p-nitrophenyl-beta-D-glucoside], for which the Km is 3.93 ± 0.26 mM.

One may read the Km as the concentration of substrate that gives half-maximal velocity.
